Values joined by “and” are separate entries in the source; they are usually repeats but may differ in a detail not shown here. Equal entries are not always repeated. Toxic doses and inconclusive results are not listed.

This test concerns BDF1 mice, B16 melanoma ip, median survival T/C. Nature of the test: NCI In Vivo Anticancer Drug Screen. Data for tumor model B16 Melanoma (intraperitoneal) in B6D2F1 (BDF1) mice. The conditions noted are these: endpoint: median survival time, higher = longer survival. The gist of the method: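 The ratio T/C compares compound-treated mice with vehicle-treated controls, using survival or tumor size as the endpoint in a transplantable tumor model.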

Setting [1] is: dose: 50.0 mg/kg/injection, schedule: Q01DX009 (ip), vehicle: saline.
[2] abbreviates: dose: 100.0 mg/kg/injection, schedule: Q01DX009 (ip), vehicle: Klucel (hydroxypropylcellulose) (HPC).
Where [3] appears, read: dose: 100.0 mg/kg/injection, schedule: Q01DX009 (ip), vehicle: saline with Tween-80.
[4] abbreviates: dose: 200.0 mg/kg/injection, schedule: Q01DX009 (ip), vehicle: Klucel (hydroxypropylcellulose) (HPC).
Where [5] appears, read: dose: 200.0 mg/kg/injection, schedule: Q01DX009 (ip), vehicle: saline with Tween-80.
Where [6] appears, read: dose: 400.0 mg/kg/injection, schedule: Q01DX009 (ip), vehicle: Klucel (hydroxypropylcellulose) (HPC).
Where [7] appears, read: dose: 12.5 mg/kg/injection, schedule: Q01DX009 (ip), vehicle: Klucel (hydroxypropylcellulose) (HPC).
Where [8] appears, read: dose: 6.25 mg/kg/injection, schedule: Q01DX009 (ip), vehicle: saline.
[9] abbreviates: dose: 12.5 mg/kg/injection, schedule: Q01DX009 (ip), vehicle: saline.
Where [10] appears, read: dose: 25.0 mg/kg/injection, schedule: Q01DX009 (ip), vehicle: saline.

As for `Nc1n[nH]c(N)n1`, the T/C runs as follows: under setting [1], 99 % of control and 100 % of control; under setting [2], 100 % of control (2×) and 108 % of control; (dose: 100.0 mg/kg/injection, schedule: Q01DX009 (ip), vehicle: saline sonified) 90 % of control; under setting [3], 95 % of control and 97 % of control and 120 % of control; under setting [4], 94 % of control and 102 % of control (2×); (dose: 200.0 mg/kg/injection, schedule: Q01DX009 (ip), vehicle: saline sonified) 97 % of control and 100 % of control. Further, the T/C reads like this: under setting [5], 100 % of control and 107 % of control; under setting [6], 92 % of control and 108 % of control and 110 % of control; (dose: 400.0 mg/kg/injection, schedule: Q01DX009 (ip), vehicle: saline sonified) 95 % of control and 97 % of control; (dose: 800.0 mg/kg/injection, schedule: Q01DX009 (ip), vehicle: Klucel (hydroxypropylcellulose) (HPC)) 86 % of control and 107 % of control and 111 % of control; (dose: 800.0 mg/kg/injection, schedule: Q01DX009 (ip), vehicle: saline sonified) 92 % of control and 100 % of control; (dose: 1600.0 mg/kg/injection, schedule: Q01DX009 (ip), vehicle: saline with Tween-80) 93 % of control. The T/C (dose: 3200.0 mg/kg/injection, schedule: Q01DX009 (ip), vehicle: saline with Tween-80) was 97 % of control.
In the case of `Cc1cc(=O)c2c(=O)[nH][nH]c2[nH]1`, the T/C is 100 % of control (dose: 50.0 mg/kg/injection, schedule: Q01DX009 (ip), vehicle: saline with Tween-80); 95 % of control under setting [3]; 88 % of control under setting [5].
`Cc1ccc2c(Nc3ccc(NS(C)(=O)=O)cc3)c3ccccc3nc2c1C`: the T/C is 90 % of control (dose: 5.0 mg/kg/injection, schedule: Q01DX009 (ip), vehicle: saline sonified); 117 % of control (dose: 20.0 mg/kg/injection, schedule: Q01DX009 (ip), vehicle: other); 158 % of control (dose: 20.0 mg/kg/injection, schedule: Q01DX009 (ip), vehicle: saline with Tween-80); 185 % of control (dose: 40.0 mg/kg/injection, schedule: Q01DX009 (ip), vehicle: saline sonified); 163 % of control (dose: 40.0 mg/kg/injection, schedule: Q01DX009 (ip), vehicle: saline with Tween-80); 100 % of control under setting [1].
On to `CC(C)=CCC/C(C)=C/CNCCc1c[nH]c2ccccc12`, for which the T/C reads like this: (dose: 6.25 mg/kg/injection, schedule: Q01DX009 (ip), vehicle: Klucel (hydroxypropylcellulose) (HPC)) 107 % of control; under setting [7], 111 % of control.
For the compound `COc1ccccc1NC(=O)Oc1c(C(C)C)cccc1C(C)C`, the T/C under setting [2] is 93 % of control, the T/C under setting [4] was 90 % of control and the T/C under setting [6] was 93 % of control.
For `O=[N+]([O-])c1cc([N+](=O)[O-])cc(S(=O)(=O)O)c1`, the T/C runs as follows: (dose: 25.0 mg/kg/injection, schedule: Q04DX003 (ip), vehicle: saline) 108 % of control; (dose: 50.0 mg/kg/injection, schedule: Q04DX003 (ip), vehicle: saline) 97 % of control; (dose: 100.0 mg/kg/injection, schedule: Q04DX003 (ip), vehicle: saline) 87 % of control.
In the case of `CNCC(C)(C)c1ccccc1`, the T/C was 102 % of control under setting [8], 90 % of control under setting [9], 102 % of control under setting [10] and 100 % of control under setting [1].
`N#CCc1ccccc1C(=O)O`: for the setting “dose: 100.0 mg/kg/injection, schedule: Q04DX003 (ip), vehicle: gum acacia”, the T/C is 97 % of control.
As to `CC(CN1CCN(CCOCCO)CC1)CN1c2ccccc2Sc2ccc(Cl)cc21` (stereo not given), the T/C reads like this: (dose: 0.09 mg/kg/injection, schedule: Q01DX009 (ip), vehicle: saline) 117 % of control; (dose: 0.19 mg/kg/injection, schedule: Q01DX009 (ip), vehicle: saline) 98 % of control; (dose: 0.39 mg/kg/injection, schedule: Q01DX009 (ip), vehicle: saline) 121 % of control; (dose: 0.78 mg/kg/injection, schedule: Q01DX009 (ip), vehicle: saline) 104 % of control; (dose: 1.56 mg/kg/injection, schedule: Q01DX009 (ip), vehicle: saline) 115 % of control; (dose: 3.12 mg/kg/injection, schedule: Q01DX009 (ip), vehicle: saline) 100 % of control. The T/C under setting [8] was 101 % of control.
In the case of `COc1ccc([I+]c2ccccc2)cc1`, the T/C reads like this: (dose: 0.75 mg/kg/injection, schedule: Q01DX009 (ip), vehicle: saline with Tween-80) 95 % of control; (dose: 1.5 mg/kg/injection, schedule: Q01DX009 (ip), vehicle: saline with Tween-80) 97 % of control; (dose: 3.0 mg/kg/injection, schedule: Q01DX009 (ip), vehicle: saline with Tween-80) 102 % of control; (dose: 6.0 mg/kg/injection, schedule: Q01DX009 (ip), vehicle: saline with Tween-80) 93 % of control.
Consider `Cc1ccc(NS(=O)(=O)c2ccc([N+](=O)[O-])cc2)cc1`, for which the T/C runs as follows: (dose: 25.0 mg/kg/injection, schedule: Q04DX003 (ip), vehicle: Klucel (hydroxypropylcellulose) (HPC)) 115 % of control; (dose: 50.0 mg/kg/injection, schedule: Q04DX003 (ip), vehicle: Klucel (hydroxypropylcellulose) (HPC)) 103 % of control; (dose: 100.0 mg/kg/injection, schedule: Q04DX003 (ip), vehicle: Klucel (hydroxypropylcellulose) (HPC)) 108 % of control; (dose: 200.0 mg/kg/injection, schedule: Q04DX003 (ip), vehicle: Klucel (hydroxypropylcellulose) (HPC)) 97 % of control; (dose: 400.0 mg/kg/injection, schedule: Q04DX003 (ip), vehicle: Klucel (hydroxypropylcellulose) (HPC)) 115 % of control.
For `O=CN(O)CC(=O)O.[Zn]`, the T/C (dose: 5.0 mg/kg/injection, schedule: Q01DX009 (ip), vehicle: saline) was 99 % of control; the T/C (dose: 10.0 mg/kg/injection, schedule: Q01DX009 (ip), vehicle: saline) was 98 % of control; the T/C (dose: 20.0 mg/kg/injection, schedule: Q01DX009 (ip), vehicle: saline) is 88 % of control.
Consider `Cc1ccc2c(c1)P(=O)(O)c1cc(Cl)ccc1O2`, for which the T/C is, setting by setting: (dose: 86.4 mg/kg/injection, schedule: Q01DX009 (ip), vehicle: water) 100 % of control; (dose: 144.0 mg/kg/injection, schedule: Q01DX009 (ip), vehicle: water) 94 % of control; (dose: 240.0 mg/kg/injection, schedule: Q01DX009 (ip), vehicle: water) 101 % of control; (dose: 259.0 mg/kg/injection, schedule: Q04DX003 (ip), vehicle: water) 123 % of control; (dose: 400.0 mg/kg/injection, schedule: Q01DX009 (ip), vehicle: water) 98 % of control; (dose: 432.0 mg/kg/injection, schedule: Q04DX003 (ip), vehicle: water) 88 % of control.
Consider `O=c1[nH]c2ccccc2c2cc3ccccc3cc12`, for which the T/C under setting [8] was 94 % of control and the T/C under setting [9] was 86 % of control.
Regarding `COc1cccc(/C=c2\[nH]c(=O)/c(=C/c3cccc(OC)c3OC)[nH]c2=O)c1OC`, the T/C is, setting by setting: under setting [7], 89 % of control; (dose: 25.0 mg/kg/injection, schedule: Q01DX009 (ip), vehicle: Klucel (hydroxypropylcellulose) (HPC)) 99 % of control; (dose: 50.0 mg/kg/injection, schedule: Q01DX009 (ip), vehicle: Klucel (hydroxypropylcellulose) (HPC)) 92 % of control and 96 % of control.
As to `O=C(Cc1ccc2cc3c(cc2c1)OCO3)NCCc1ccc2c(c1)OCO2`, the T/C is 105 % of control under setting [2], 94 % of control under setting [4] and 91 % of control under setting [6].
For the compound `C/C=C/C=C\C1OC(O)([C@H](CC)C(=O)NC/C=C/C=C(\C)[C@H](OC)C(C)C2OC(\C=C/C=C/C=C(\C)C(=O)c3c(O)ccn(C)c3=O)[C@H](O)[C@@H]2O)C(O)C(O)C1(C)C` (stereo not given in full), the T/C is, setting by setting: under setting [10], 102 % of control; under setting [1], 89 % of control; (dose: 100.0 mg/kg/injection, schedule: Q01DX009 (ip), vehicle: saline) 91 % of control; (dose: 200.0 mg/kg/injection, schedule: Q01DX009 (ip), vehicle: saline) 97 % of control.
As for `CCOc1ccc(OCC)c(NC(=O)c2ccccc2)c1`, the T/C runs as follows: under setting [3], 114 % of control; under setting [5], 110 % of control; (dose: 400.0 mg/kg/injection, schedule: Q01DX009 (ip), vehicle: saline with Tween-80) 110 % of control.

Values taken from PubChem BioAssay AID192 (DTP/NCI, 2004).
